# Assay results: patent publication US20060234986A1, “Use of TAFI inhibitors for enhanced myocardial reperfusion and facilitated PCI” (Schering Aktiengesellschaft, priority 2005, published 2006)
# How the values were obtained:
# α2-antiplasmin = assay: Ex vivo α2-antiplasmin activity (colorimetric assay) in dog plasma
# Description: Plasma drug concentration was measured using LC/MS/MS techniques. Ex vivo α2-antiplasmin, an indicator of systemic plasmin activation, was measured by colorimetric assay. Exogenously activated TAFI (10 nM) was added into the blank plasma and TAFI activity measured by colorimetric assays was defined as 100%. Plasma from TAFI inhibitor-administered dogs were treated in the same way, and results were expressed as the percent inhibition of the spiked TAFI activity.
# [1] = test system: rabbit jugular vein thrombus; assay: Rabbit jugular vein thrombosis model, thrombus weight; format: in vivo; settings: for Thrombus weight (wet): 90 min
# Description: Thrombosis was initiated ex vivo and introduced into the jugular vein. Treatment compound(s) were administered to the animals after thrombus formation and introduction. Fibrinolysis was assessed by measuring clot weight at the end of the study. […] The threshold dose of tPA was combined with either a TAFI inhibitor of the invention, (2S)-2-(3-(amino)methylphenyl)-3-(((1R)-1-(3-phenylpropylsulfonyl)amino-2-methylpropyl)(hydroxy)phosphinoyl)propanoic acid trifluoroacetate, or the peptidic TAFI inhibitor CPI, which was used as a positive control to confirm the effect of TAFI inhibition in this model.
# Male New Zealand white rabbits (2.35-3.14 kg) were anesthetized using isoflurane. A segment of the jugular vein was isolated with ligatures and injected with a mixture of autologous citrated blood and thromboplastin to induce thrombus formation. The thrombus formed in the isolated venous segment was allowed to mature for 30 minutes prior to releasing the ligatures and initiating thrombolytic treatment.
# Rabbits were divided into the following treatment groups (10-12 animals per group): • (1) vehicle; phosphate buffered saline (PBS) • (2) threshold fibrinoloytic dose tPA (10 μg/kg+67 μg/kg/hr) • (3) CPI (500 μg/kg+300 μg/kg/hr)+tPA low (10 μg/kg+67μg/kg/hr) • (4) low TAFI inhibitor (0.3 mg/kg+0.14 mg/kg/hr)+tPA low (10 μg/kg+67 μg/kg/hr) • (5) high TAFI inhibitor (3 mg/kg+1.4 mg/kg/hr)+tPA low ([…]+67 μg/kg/hr) • (6) maximally effective dose tPA (30 μg/kg+200 μg/kg/hr)
# Blood samples were collected from the left jugular vein for measurement of TAFI inhibitor plasma drug levels prior to releasing the ligatures (time=0), and at 1, 10, 30, 60, and 90 minutes after starting thrombolytic treatment. CPI, TAFI inhibitor, tPA or vehicle were administered as bolus injections, followed by a constant infusion for 90 minutes via the right marginal ear vein. At the end of 90 minutes, the rabbits were euthanized and the thrombus was removed for determination of wet and dry weights. The relative effects of all treatment groups were the same, regardless of whether wet or dry weights were utilized for analysis, so only wet weights are used in the subsequent discussion. The assessment of bleeding risk was evaluated by measuring the weight of blood loss from toe nail clips performed prior to thrombolytic treatment, and at the end of the study. Re-bleeding from the previous site following initial hemostasis was also recorded.
# Data were analyzed using ANOVA followed by the LSD test for a comparison of differences in thrombus weight in the various treatment groups. In the vehicle-treated animals (group 1) thrombus weights averaged 98±9 mg. […] When either CPI (group 3) or TAFI inhibitor (group 4 or 5) was given together with the low dose of tPA, the threshold effect of tPA was enhanced, and a significant reduction in thrombus weights was observed when compared to the vehicle-treated group. This enhancement of fibrinolytic activity of tPA for the CPI group (68±10 mg) and the low dose TAFI inhibitor group (63±10 mg) was similar to results obtained with the high dose TAFI inhibitor group (56±13 mg). In animals treated with the higher dose of tPA (group 6), a significant reduction in thrombus weight (41±7 mg) was observed compared to both the vehicle and low dose tPA groups.
# [2] = test system: rat femoral artery occlusive thrombus; assay: Rat femoral artery thrombosis model (rose Bengal + light irradiation), incidence of reperfusion; format: in vivo
# Text: A stable, occlusive thrombus was formed by giving rose Bengal intravenously followed by light irradiation. Free radicals generated at the site of irradiation result in endothelial damage that causes an occlusive thrombus. Thrombotic occlusion and effective fibrinolysis (reperfusion) were monitored by measuring blood flow with a Doppler flow probe. Since no spontaneous reperfusion is observed in this model, a threshold dose of tPA was used to mimic the endogenous fibrinolytic activity observed in patients with STEMI undergoing PCI (16-25% spontaneous reperfusion rate). […] Based on the results of phanmacokinetic studies and in vitro clot lysis assays, two doses (3 and 10 mg/kg) of a TAFI inhibitor of the invention, (2S)-2-(3-(amino)methylphenyl)-3-(((1R)-1-(3-phenylpropylsulfonyl)amino-2-methylpropyl)(hydroxy)phosphinoyl)propanoic acid trifluoroacetate, were used.
# Male Wistar rats (241-270 g) were anesthetized with sodium pentobarbital. A section of the right femoral artery was isolated carefully, and a pulse Doppler flow probe was placed for monitoring blood flow. The left carotid artery, both jugular veins, and left femoral vein were cannulated with polyethylene tubes for monitoring blood pressure and heart rate, for injection of tPA, rose Bengal and TAFI inhibitor, respectively. Blood flow, blood pressure and heart rate were continuously recorded on a thermal recorder during the experiment. An occlusive thrombus was induced in the right femoral artery by bolus injection of rose Bengal followed by light exposure. Occlusive thrombus was observed approximately 6 min after the injection of rose Bengal and start of irradiation.
# Rats were assigned to four groups for the tPA dose response as follows: • (1) Vehicle (saline; n=8) • (2) tPA (72 μg/kg/min=2.5 million I.U./kg/hr; n=8) • (3) tPA (115 μg/kg/min=4 million I.U./kg/hr; n=10) • (4) tPA (230 μg/kg/min=8 million I.U./kg/hr; n=8)
# tPA or vehicle was infused via the right jugular vein beginning 10 min after the formation of occlusive thrombus and the infusion was continued for 60 min.
# Rats were assigned to three groups for the TAFI inhibitor efficacy study as follows: • (1) tPA threshold (72 μg/kg/min, n=16) • (2) low TAFI inhibitor (3 mg/kg+0.03 mg/kg/min) and tPA threshold (72 μg/kg/min) (n=8) • (3) high TAFI inhibitor (10 mg/kg+0.10 mg/kg/min) and tPA threshold (72 μg/kg/min) (n=8)
# Administration of TAFI inhibitor or vehicle via the left femoral vein was started simultaneously with tPA via the right jugular vein beginning 10 min after the formation of occlusive thrombus, both given as a bolus over 1 min and infusion for 59 min. […] The incidence of reperfusion was used as the index of drug efficacy.
# [3] = test system: bleeding time after sectioning of the cuticle; assay: Dog cuticle bleeding time; format: in vivo
# Text: (§1) A dog femoral artery thrombosis model was used to test that TAFI inhibition by i.v. administration of a potent and selective TAFI inhibitor would potentiate fibrinolysis. A stable, occlusive thrombus was formed using FeCl2 to chemically injure the arterial wall. Thrombotic occlusion and reperfusion (effective fibrinolysis) were monitored by measuring blood flow with a Doppler flow probe. Since no spontaneous reperfusion is observed in this model, a sub-maximal dose of tPA was used to enhance baseline activity. […] Bleeding propensity was measured by determining the time required for bleeding to stop following a series of standardized wounds (sectioning of the cuticle).
# (§2) Male Beagle dogs (8-12 kg) were anesthetized with isoflurane (2-3%). […] Femoral artery blood flow, systemic blood pressure, heart rate and breathing patterns were monitored and recorded on a data acquisition system during the experiment. […] The time for the cut to cease bleeding was recorded as the primary bleeding time.
# (§3) After stabilization of hemodynamic parameters, a blood sample was taken for drug levels. […] Bleeding time was determined and a blood sample was collected 20 min after the start of the tPA infusion. […]
# [4] = test system: LPS-induced impairment of fibrinolysis (lung fibrin deposition); assay: Rat lung fibrin deposition model (batroxobin, 125I-fibrinogen, LPS); format: in vivo
# Description: This model was used to test the hypothesis that inhibition of endogenous TAFI can enhance fibrinolysis. Batroxobin, a thrombin-like enzyme, was used to hydrolyze fibrinogen to fibrin, which deposits in tissues, especially in the lungs. Following tissue deposition, fibrin is lysed into fibrin degradation products, which return to the blood. In this study, ^125I-labeled fibrinogen was given and tissue accumulation of fibrin and the subsequent fibrinolysis were assessed by the mobilization of ^125I from blood to tissue (generation of ^125I-fibrin from ^125I-fibrinogen) and back to blood (generation of ^125I-fibrin degradation products from ^125I-fibrin) after batroxobin injection. LPS has been known to stinulate the release of numerous endogenous factors that can inhibit fibrinolytic activity, including TAFI, thus preventing spontaneous fibrinolysis in the lungs.
# Male Sprague-Dawley rates (300-350g) were randomly divided into three groups: • (1) untreated (controls) • (2) treated with LPS • (3) treated with LPS+TAFI inhibitor. Animals assigned to receive LPS (0.5 mg/kg, iv) were injected 3 hours before batroxobin injection. Twenty minutes before batroxobin injection, all animals were anesthetized with pentobarbital (65 mg/kg, ip), and saline-filled catheters were placed into the right carotid artery and left jugular vein for blood collection and drug injection, respectively. ^125I-fibrinogen (1 mCi) was administered to all animals 10 min. prior to batroxobin injection and animals assigned to receive the TAFI inhibitor (10 mg/kg) were injected 5 min. before the batroxobin. The rats were sacrificed at either 5 or 30 min after batroxobin injection.
# [5] = test system: dog femoral artery occlusive thrombus; assay: Dog femoral artery thrombosis model (FeCl2 injury), reperfusion and time to occlusion; format: in vivo; settings: TAFI inhibitor pre-treatment (10 min before FeCl2), n=6, p=ns vs control group
# Text: as §1, §2, §3
compound,measurement,setting,value
"tPA: tissue-type plasminogen activator, a plasminogen activator used as thrombolytic agent",Activity of α2-antiplasmin (indicator of systemic plasmin activation),"α2-antiplasmin; tPA infusion, dose dependence",dose-dependently reduced
same,Thrombus weight (wet),[1]; higher (maximally effective) dose tPA 30 μg/kg + 200 μg/kg/hr alone,41 ± 7 mg
same,Thrombus weight (wet),"[1]; low (threshold) dose tPA 10 μg/kg + 67 μg/kg/hr alone, not significant vs vehicle",80 ± 11 mg
same,% Reduction Thrombus Weight,[1]; threshold dose tPA (10 μg/kg + 1 μg/kg/min) alone,18%
same,Incidence of reperfusion,"[2]; TAFI inhibitor efficacy study, tPA threshold dose 72 μg/kg/min alone, reperfused/total rats",2/16
same,Incidence of reperfusion,"[2]; tPA dose response study, tPA 72 μg/kg/min infused 60 min, starting 10 min after occlusive thrombus, reperfused/total rats",1/8
same,Incidence of reperfusion,"[2]; tPA dose response study, tPA 115 μg/kg/min infused 60 min, reperfused/total rats",5/10
same,Incidence of reperfusion,"[2]; tPA dose response study, tPA 230 μg/kg/min infused 60 min, reperfused/total rats",6/8
same,Bleeding time,"[3]; dog, in vivo",prolonged dose-dependently
"CC(C)[C@H](NS(=O)(=O)CCCc1ccccc1)P(=O)(O)C[C@H](C(=O)O)c1cccc(CN)c1.O=C(O)C(F)(F)F [TAFI inhibitor, (2S)-2-(3-(amino)methylphenyl)-3-(((1R)-1-(3-phenylpropylsulfonyl)amino-2-methylpropyl)(hydroxy)phosphinoyl)propanoic acid trifluoroacetate]",Inhibition of α2-antiplasmin activity induced by tPA infusion,α2-antiplasmin; TAFI inhibitor administered pre- or post-thrombus formation + tPA,did not change
same,% Reduction Thrombus Weight,"[1]; 0.3 mg/kg TAFI inhibitor + tPA post-thrombus formation, p = ns",36% p = ns
same,% Reduction Thrombus Weight,"[1]; 3 mg/kg TAFI inhibitor + tPA post-thrombus formation, p = ns",43% p = ns
same,Thrombus weight (wet),[1]; high TAFI inhibitor 3 mg/kg + 1.4 mg/kg/hr + tPA low (10 pg/kg + 67 μg/kg/hr),56 ± 13 mg
same,Thrombus weight (wet),[1]; low TAFI inhibitor 0.3 mg/kg + 0.14 mg/kg/hr + tPA low (10 μg/kg + 67 μg/kg/hr),63 ± 10 mg
same,CPM in the lungs versus control rats,"[4]; LPS + TAFI inhibitor 10 mg/kg, 30 min after batroxobin",not different
same,Blood CPM and 125I in the lungs,"[4]; LPS + TAFI inhibitor 10 mg/kg, 30 min after batroxobin, versus LPS-treated rats",prevented LPS-induced recovery of blood CPM and resulted in ^125I retention in the lungs
same,Radioactive readings in blood or lungs,"[4]; TAFI inhibitor 10 mg/kg in LPS-treated rats, 5 min after batroxobin, in relation to LPS-treated rats",did not change
same,Incidence of reperfusion,"[2]; 3 mg/kg TAFI inhibitor + tPA (72 μg/kg/min) post-thrombus formation, p = ns",25% (2/8) p = ns
same,Incidence of reperfusion,"[2]; 10 mg/kg TAFI inhibitor + tPA (72 μg/kg/min) post-thrombus formation, p < 0.03",63% (5/8) p < 0.03
same,Incidence of reperfusion,"[2]; high TAFI inhibitor dose 10 mg/kg + 0.10 mg/kg/min i.v. + tPA threshold 72 μg/kg/min, post-thrombus, reperfused/total rats",5/8
same,Incidence of reperfusion,"[2]; low TAFI inhibitor dose 3 mg/kg + 0.03 mg/kg/min i.v. + tPA threshold 72 μg/kg/min, post-thrombus, reperfused/total rats",2/8
same,Time to occlusion induced by FeCl2,[5],31.1 ± 3.9 min
same,Bleeding time,"[3]; TAFI inhibitor 10 mg/kg pre-thrombus + tPA 10 μg/kg/min, versus tPA alone",without further prolongation of bleeding time
